These results are taken from patent publication US20210238162A1, “CHEMICAL COMPOUNDS” (GlaxoSmithKline Intellectual Property Development Limited, priority 2015, published 2021).

Counter-ions that a name gives are not always drawn. Bounds are passed on as bounds.

For one assay, the target named is T1, haematopoietic prostaglandin D synthase (H-PGDS) (Homo sapiens, UniProt O60760).
T1 construct: Full length human H-PGDS cDNA (Invitrogen Ultimate ORF IOH13026) was amplified by PCR; made in house; host or cells: E. coli BL21 (DE3*), vector pET22b+
T1 sequence (O60760 whole entry): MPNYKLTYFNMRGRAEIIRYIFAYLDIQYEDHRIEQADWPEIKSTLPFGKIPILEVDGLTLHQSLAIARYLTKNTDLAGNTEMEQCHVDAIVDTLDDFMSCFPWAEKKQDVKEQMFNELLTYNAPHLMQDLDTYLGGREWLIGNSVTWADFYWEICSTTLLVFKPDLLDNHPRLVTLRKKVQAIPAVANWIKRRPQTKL
Nature of the assay: H-PGDS RapidFire High Throughput Mass Spectrometry Assay. The following applies: H-PGDS RapidFire MS assay, mean pIC50; read-out: Potency Range (mean pIC50) (converted). The assay is classed as biochemical. On the procedure: The H-PGDS RapidFire™ mass spectrometric assay monitors conversion of prostaglandin H2 (PGH2) to prostaglandin D2 (PGD2) by haematopoietic prostaglandin D synthase (H-PGDS). In the assay format described here, the substrate (PGH2) is formed in situ by the action of cyclooxygenase-2 on arachidonic acid. This first step is set up to be fast, and generates a burst of PGH2 at ˜10 μM. The PGH2 is then further converted to PGD2 by the H-PGDS enzyme. […] Plates are then read on the RapidFire™ high throughput solid phase extraction system (Agilent) which incorporates a solid phase extraction step coupled to a triple quadrupole mass spectrometer (AB SCIEX). Relative levels of PGD2 and PGF2α, which acts as a surrogate for substrate, are measured and a percent conversion calculated.
Full length human H-PGDS cDNA (Invitrogen Ultimate ORF IOH13026) was amplified by PCR with the addition of a 5′ 6-His tag and TEV protease cleavage site. The PCR product was digested with Ndel and Xhol and ligated into pET22b+ (Merck Novagen®). Expression was carried out in E. coli strain BL21 (DE3*) using auto-induction Overnight Express™ Instant TB medium (Merck Novagen®) supplemented with 1% glycerol. The culture was first grown at 37° C. and the temperature was reduced to 25° C. when OD600 reached 2.0. Cells were harvested by centrifugation after a further 18 hr. 10 g of E. coli cell pellet was suspended to a total volume of 80 mL in lysis buffer (20 mM Tris-Cl pH 7.5, 300 mM NaCl, 20 mM imidazole, 5 mM β-mercaptoethanol, 10% glycerol). 1 mg/mL protease inhibitors (Protease Inhibitor Cocktail Set Ill, Merck Calbiochem®) and 1 mg/mL lysozyme were added to the cell suspension. The suspension was then sonicated for 5 min (UltraSonic Processor VCX 750, Cole-Parmer Instrument Co.) with a micro probe (50% amplitude, 10 sec on/off) and then centrifuged at 100,000 g for 90 min (at 4° C.). The supernatant was loaded onto a Ni-NTA HiTrap column (5 mL, GE Heathcare, pre-equilibrated in lysis buffer). The column was washed with 10 column volumes of lysis buffer and eluted with lysis buffer containing 500 mM imidazole. The pooled protein peak fractions were concentrated using a 10 kDa centrifugal filter at 3500 g and 4° C. (Amicon Ultra-15 centrifugal filter unit with Ultracel-10 membrane from Millipore). Further purification of the concentrated protein was carried out using gel filtration chromatography on a HiLoad 26/600 Superdex 75 preparative grade column (GE Healthcare Life Sciences) using 50 mM Tris pH 7.5, 50 mM NaCl, 1 mM dithiothreitol, 1 mM MgCl2. Fractions containing the protein were pooled, concentrated as described above, and stored at −80° C.
The full length human COX-2 gene (accession number L15326) was amplified by PCR to generate an EcoRI-HindIII fragment containing an in-frame FLAG tag. This was subcloned into pFastBac 1 (Invitrogen). The COX2 FLAG plasmid was recombined into the baculovirus genome according to the BAC-to-BAC protocol described by Invitrogen. Transfection into Spodoptera frugiperda (Sf9) insect cells was performed using Cellfectin (Invitrogen), according to the manufacturer's protocol. […] Recombinant virus was added at a Multiplicity of Infection (MOI) of 5 and the culture was allowed to continue for 3 days. Cells were harvested using a continuous feed centrifuge run at 2500 g at a rate of approximately 2 L/min with cooling. The resultant cell slurry was re-centrifuged in pots (2500 g, 20 min, 4° C.) and the cell paste was stored at −80° C. […] The suspension was sonicated in 500 mL batches for 8×5 seconds at 10 u amplitude with the medium tip of an MSE probe sonicator and subsequently incubated at 4° C. for 90 min with gentle stirring. The lysate was centrifuged at 12000 rpm for 45 min at 4° C. in a Sorvall SLA1500 rotor. The supernatant (1400 mL) was added to 420 mL of 20 mM Tris-Cl pH 7.4, 150 mM NaCl, 0.1 mM EDTA to reduce the concentration of n-octyl-β-D-glucopyranoside to 1% w/v.
Consider `CC(O)[C@H]1CC[C@H](NC(=O)c2cnc3cc(OC(F)F)ccc3c2)CC1` (stereo partly drawn) [Example 13, 7-(Difluoromethoxy)-N-(trans-4-(-1-hydroxyethyl)cyclohexyl)quinoline-3-carboxamide], for which the IC50 is 0.01 to 0.0794 µM.

As to `O=C(NC1CC2(CC(NCC(F)(F)F)C2)C1)c1cnc2cc(OC(F)F)c(F)cc2c1` (racemic) [Example 61, 7-(Difluoromethoxy)-6-fluoro-N-(6-((2,22-trifluoroethyl)amino)spiro[3.3]heptan-2-yl)quinoline-3-carboxamide], the IC50 is 0.01 to 0.0794 µM.

On to `CN(C)C(=O)[C@@H]1CC[C@@H](NC(=O)c2cnc3cc(OC(F)F)c(Cl)cc3c2)CO1` (racemic) [Example 126, Racemic 6-Chloro-7-(difluoromethoxy)-N-((3r,6s)-6-(dimethylcarbamoyl)tetrahydro-2H-pyran-3-yl)quinoline-3-carboxamide], for which the IC50 is 0.01 to 0.0794 µM.

With `CCOC(=O)c1cnc(N[C@H]2C[C@H](NC(=O)c3cnc4cc(OC(F)F)c(F)cc4c3)C2)o1` [Example 83, Ethyl 2-((trans-3-(7-(difluoromethoxy)-6-fluoroquinoline-3-carboxamido)cyclobutyl)amino)oxazole-5-carboxylate], the IC50 is 0.01 to 0.0794 µM.

Consider `O=C(NC1CCNC1=O)c1cnc2cc(OC(F)F)c(Cl)cc2c1` (stereo in doubt) [Example 117, (S)-6-Chloro-7-(difluoromethoxy)-N-(2-oxopyrrolidin-3-yl)quinoline-3-carboxamide, trifluoroacetate], for which the IC50 is below 0.01 µM.

On to `CC1CN(c2cc3ncc(C(=O)N[C@@H]4C(=O)NC[C@H]4C)cc3cc2F)C1` [Example 207, 6-Fluoro-N-((3S,4R)-4-methyl-2-oxopyrrolidin-3-yl)-7-(3-methylazetidin-1-yl)quinoline-3-carboxamide], for which the IC50 is 0.1 to 1 µM.

For the compound `CCOC(=O)c1cnc(N2CCC(NC(=O)c3cnc4cc(OC(F)F)c(F)cc4c3)CC2)o1` [Example 72, Ethyl 2-(4-(7-(difluoromethoxy)-6-fluoroquinoline-3-carboxamido)piperidin-1-yl)oxazole-5-carboxylate], the IC50 was 0.01 to 0.0794 µM.

As to `CC(C)CN1CC[C@H](NC(=O)c2cnc3cc(OC(F)F)c(F)cc3c2)C1=O` [Example 50, (S)-7-(Difluoromethoxy)-6-fluoro-N-(1-isobutyl-2-oxopyrrolidin-3-yl)quinoline-3-carboxamide], the IC50 was 0.01 to 0.0794 µM.

`O=C(N[C@H]1CCNC1=O)c1cnc2cc(C3CCC3)c(Cl)cc2c1` [Example 181, (S)-6-Chloro-7-cyclobutyl-N-(2-oxopyrrolidin-3-yl)quinoline-3-carboxamide]: the IC50 was below 0.01 µM.

In the case of `C[C@]1(O)CC[C@H](NC(=O)c2cnc3cc(OC(F)F)c(Cl)cc3c2)CC1` [Example 143, 6-Chloro-7-(difluoromethoxy)-N-((1r,4r)-4-hydroxy-4-methylcyclohexyl)quinoline-3-carboxamide], the IC50 is below 0.01 µM.

In the case of `CC(C)(O)[C@H]1CC[C@H](NC(=O)c2cnc3cc(Br)ccc3c2)CC1` [Example 191, 7-Bromo-N-(trans-4-(2-hydroxypropan-2-yl)cyclohexyl)quinoline-3-carboxamide], the IC50 was 0.01 to 0.0794 µM.

As to `COc1ccc2cc(C(=O)N[C@H]3CC[C@H](C(C)(C)O)CC3)cnc2c1F` [Example 202, 8-Fluoro-N-(trans-4-(2-hydroxypropan-2-yl)cyclohexyl)-7-methoxyquinoline-3-carboxamide], the IC50 was 0.01 to 0.0794 µM.

For the compound `Cc1cc2cc(C(=O)N[C@H]3CC[C@H](C(C)(C)O)CC3)cnc2c(Cl)c1OC(F)F` [Example 228, 8-Chloro-7-(difluoromethoxy)-N-((trans)-4-(2-hydroxypropan-2-yl)cyclohexyl)-6-methylquinoline-3-carboxamide], the IC50 was 0.01 to 0.0794 µM.

Turning to `O=C(N[C@H]1C[C@H](O)C1)c1cnc2cc(OC(F)F)c(Cl)cc2c1` [Example 140, 6-Chloro-7-(difluoromethoxy)-N-(trans-3-hydroxycyclobutyl)quinoline-3-carboxamide], the IC50 is 0.01 to 0.0794 µM.

As to `C[C@]1(O)CC[C@@H](NC(=O)c2cnc3cc(OC(F)F)c(Cl)cc3c2)CC1` [Example 147, 6-Chloro-7-(difluoromethoxy)-N-((1s,4s)-4-hydroxy-4-methylcyclohexyl)quinoline-3-carboxamide], the IC50 is 0.01 to 0.0794 µM.

Take `O=C(N[C@H]1CC[C@@](O)(C(F)(F)F)CC1)c1cnc2cc(OC(F)F)c(Cl)cc2c1` [Example 227, 6-Chloro-7-(difluoromethoxy)-N-((trans)-4-hydroxy-4-(trifluoromethyl)cyclohexyl)quinoline-3-carboxamide]: the IC50 is 0.01 to 0.0794 µM.

As for `CC(C)(O)[C@H]1C[C@H](NC(=O)c2cnc3cc(OC(F)F)ccc3c2)C1` [Example 11, 7-(Difluoromethoxy)-N-(trans-3-(2-hydroxypropan-2-yl)cyclobutyl)quinoline-3-carboxamide], the IC50 is 0.01 to 0.0794 µM.

With `CC1(F)CN(c2cc3ncc(C(=O)N[C@H]4CC[C@H](C(C)(C)O)CC4)cc3cc2F)C1` [Example 165, 6-Fluoro-7-(3-fluoro-3-methylazetidin-1-yl)-N-(trans-4-(2-hydroxypropan-2-yl)cyclohexyl)quinoline-3-carboxamide], the IC50 was 0.01 to 0.0794 µM.

As to `O=C(N[C@H]1CCNC1=O)c1cnc2cc(C3CC3)ccc2c1` [Example 45, (S)-7-Cyclopropyl-N-(2-oxopyrrolidin-3-yl)quinoline-3-carboxamide hydrochloride], the IC50 was 0.01 to 0.0794 µM.

With `CC1CCN1c1cc2ncc(C(=O)N[C@H]3CCNC3=O)cc2cc1F` (mixture of isomers) [Example 171, 6-Fluoro-7-(2-methylazetidin-1-yl)-N—((S)-2-oxopyrrolidin-3-yl)quinoline-3-carboxamide], the IC50 was 0.01 to 0.0794 µM.

With `C[C@H]1CCN1c1cc2ncc(C(=O)N[C@H]3CC[C@H](C(C)(C)O)CC3)cc2cc1Cl` [Example 187, 6-Chloro-N-(trans-4-(2-hydroxypropan-2-yl)cyclohexyl)-7-((S)-2-methylazetidin-1-yl)quinoline-3-carboxamide], the IC50 was below 0.01 µM.

In the case of `O=C(N[C@H]1CC[C@H](N2CC(O)(C(F)(F)F)C2)CC1)c1cnc2cc(OC(F)F)c(Cl)cc2c1` [Example 134, 6-Chloro-7-(difluoromethoxy)-N-(trans-4-(3-hydroxy-3-(trifluoromethyl)azetidin-1-yl)cyclohexyl)quinoline-3-carboxamide], the IC50 was below 0.01 µM.

`CC(O)CO[C@H]1CC[C@H](NC(=O)c2cnc3cc(OC(F)F)ccc3c2)CC1` (stereo partly drawn) [Example 16, 7-(Difluoromethoxy)-N-(trans-4-(2-hvdroxypropoxy)cyclohexyl)quinoline-3-carboxamide]: the IC50 was 0.01 to 0.0794 µM.

In the case of `C[C@]1(O)CC[C@H](NC(=O)c2cnc3cc(OC(F)F)c(Cl)cc3c2)C1` (racemic) [Example 146, Racemic 6-Chloro-7-(difluoromethoxy)-N-((1S,3S)-3-hydroxy-3-methylcyclopentyl)quinoline-3-carboxamide], the IC50 is 0.01 to 0.0794 µM.

Staying with this assay, now noted: in at least one experimental run; read-out: H-PGDS pIC50 value (converted).
For `CC1(F)CN(c2cc3ncc(C(=O)N[C@H]4CC[C@H](C(C)(C)O)CC4)cc3cc2F)C1` [Example 165, 6-Fluoro-7-(3-fluoro-3-methylazetidin-1-yl)-N-(trans-4-(2-hydroxypropan-2-yl)cyclohexyl)quinoline-3-carboxamide], the IC50 is 0.0631 µM.

Turning to `C[C@H]1CCN1c1cc2ncc(C(=O)N[C@H]3CC[C@H](C(C)(C)O)CC3)cc2cc1Cl` [Example 187, 6-Chloro-N-(trans-4-(2-hydroxypropan-2-yl)cyclohexyl)-7-((S)-2-methylazetidin-1-yl)quinoline-3-carboxamide], the IC50 was 0.00631 µM.
